# Test system: chicken embryonic stem cells
# Assay: Titration kill curve of chicken ES cells under puromycin or neomycin selection
# Format: cell-based
# Design: key to Morphology of cES cells: ES cells are present.; ES cells are differentiated.; gone: no morphologically recognizable cells are present
# Method: In a preferred embodiment, the concentration of puromycin required for selecting transfected cells is calculated as a titration kill curve. Titration kill curves for chicken embryonic stem cells are established by exposing cells in culture to puromycin concentrations varying from 0.0 to 1.0 μg/ml for 10 days (Table 7) and neomycin concentrations varying from 0.0 to 200 μg/ml (Table 8). The medium is changed every 2 days and fresh puromycin or neomycin is added. […] Puromycin concentrations of 0.3-1.0 μg/ml are used for selection of the transfected cultures. Neomycin concentrations over 40 μg/ml eliminated all cES cells within 7 days (Table 8).
structure (smiles),measurement,setting,value
COc1ccc(C[C@H](N)C(=O)N[C@H]2[C@@H](O)[C@H](n3cnc4c(N(C)C)ncnc43)O[C@@H]2CO)cc1 [puromycin],presence of ES cells,"0.3 μg/ml puromycin, 3 changes of medium over a six day period",absent from all wells
same,Morphology of cES cells,"puromycin 0.1 μg/ml, day 1",ES
same,Morphology of cES cells,"puromycin 0.1 μg/ml, day 2",ES
same,Morphology of cES cells,"puromycin 0.1 μg/ml, day 3",ES
same,Morphology of cES cells,"puromycin 0.1 μg/ml, day 4",ES
same,Morphology of cES cells,"puromycin 0.1 μg/ml, day 5",ES
same,Morphology of cES cells,"puromycin 0.1 μg/ml, day 6",ES
same,Morphology of cES cells,"puromycin 0.1 μg/ml, day 7",ES
same,Morphology of cES cells,"puromycin 0.1 μg/ml, day 8",ES
same,Morphology of cES cells,"puromycin 0.1 μg/ml, day 9",ES
same,Morphology of cES cells,"puromycin 0.1 μg/ml, day 10",ES
same,Morphology of cES cells,"puromycin 0.2 μg/ml, day 1",ES
same,Morphology of cES cells,"puromycin 0.2 μg/ml, day 2",ES
same,Morphology of cES cells,"puromycin 0.2 μg/ml, day 3",ES
same,Morphology of cES cells,"puromycin 0.2 μg/ml, day 4",ES
same,Morphology of cES cells,"puromycin 0.2 μg/ml, day 5",ES
same,Morphology of cES cells,"puromycin 0.2 μg/ml, day 6",ES
same,Morphology of cES cells,"puromycin 0.2 μg/ml, day 7",ES
same,Morphology of cES cells,"puromycin 0.2 μg/ml, day 8",ES
same,Morphology of cES cells,"puromycin 0.2 μg/ml, day 9",ES
same,Morphology of cES cells,"puromycin 0.2 μg/ml, day 10",ES
same,Morphology of cES cells,"puromycin 0.25 μg/ml, day 1",ES
same,Morphology of cES cells,"puromycin 0.25 μg/ml, day 2",ES
same,Morphology of cES cells,"puromycin 0.25 μg/ml, day 3",ES
same,Morphology of cES cells,"puromycin 0.25 μg/ml, day 4",ES
same,Morphology of cES cells,"puromycin 0.25 μg/ml, day 5",ES
same,Morphology of cES cells,"puromycin 0.25 μg/ml, day 6",diff
same,Morphology of cES cells,"puromycin 0.25 μg/ml, day 7",diff
same,Morphology of cES cells,"puromycin 0.25 μg/ml, day 8",diff/
same,Morphology of cES cells,"puromycin 0.25 μg/ml, day 9",diff/
same,Morphology of cES cells,"puromycin 0.25 μg/ml, day 10",diff/
same,Morphology of cES cells,"puromycin 0.3 μg/ml, day 1",ES
same,Morphology of cES cells,"puromycin 0.3 μg/ml, day 2",ES
same,Morphology of cES cells,"puromycin 0.3 μg/ml, day 3",diff
same,Morphology of cES cells,"puromycin 0.3 μg/ml, day 4",diff/
same,Morphology of cES cells,"puromycin 0.3 μg/ml, day 5",diff/
same,Morphology of cES cells,"puromycin 0.3 μg/ml, day 6",gone
same,Morphology of cES cells,"puromycin 0.3 μg/ml, day 7",gone
same,Morphology of cES cells,"puromycin 0.3 μg/ml, day 8",gone
same,Morphology of cES cells,"puromycin 0.3 μg/ml, day 9",gone
same,Morphology of cES cells,"puromycin 0.3 μg/ml, day 10",gone
same,Morphology of cES cells,"puromycin 0.4 μg/ml, day 1",ES
same,Morphology of cES cells,"puromycin 0.4 μg/ml, day 2",diff
same,Morphology of cES cells,"puromycin 0.4 μg/ml, day 3",gone
same,Morphology of cES cells,"puromycin 0.4 μg/ml, day 4",gone
same,Morphology of cES cells,"puromycin 0.4 μg/ml, day 5",gone
same,Morphology of cES cells,"puromycin 0.4 μg/ml, day 6",gone
same,Morphology of cES cells,"puromycin 0.4 μg/ml, day 7",gone
same,Morphology of cES cells,"puromycin 0.4 μg/ml, day 8",gone
same,Morphology of cES cells,"puromycin 0.4 μg/ml, day 9",gone
same,Morphology of cES cells,"puromycin 0.4 μg/ml, day 10",gone
same,Morphology of cES cells,"puromycin 0.5 μg/ml, day 1",diff
same,Morphology of cES cells,"puromycin 0.5 μg/ml, day 2",gone
same,Morphology of cES cells,"puromycin 0.5 μg/ml, day 3",Gone
same,Morphology of cES cells,"puromycin 0.5 μg/ml, day 4",gone
same,Morphology of cES cells,"puromycin 0.5 μg/ml, day 5",gone
same,Morphology of cES cells,"puromycin 0.5 μg/ml, day 6",gone
same,Morphology of cES cells,"puromycin 0.5 μg/ml, day 7",gone
same,Morphology of cES cells,"puromycin 0.5 μg/ml, day 8",gone
same,Morphology of cES cells,"puromycin 0.5 μg/ml, day 9",gone
same,Morphology of cES cells,"puromycin 0.5 μg/ml, day 10",gone
same,Morphology of cES cells,"puromycin 0.6 μg/ml, day 1",diff
same,Morphology of cES cells,"puromycin 0.6 μg/ml, day 2",gone
same,Morphology of cES cells,"puromycin 0.6 μg/ml, day 3",gone
same,Morphology of cES cells,"puromycin 0.6 μg/ml, day 4",gone
same,Morphology of cES cells,"puromycin 0.6 μg/ml, day 5",gone
same,Morphology of cES cells,"puromycin 0.6 μg/ml, day 6",gone
same,Morphology of cES cells,"puromycin 0.6 μg/ml, day 7",gone
same,Morphology of cES cells,"puromycin 0.6 μg/ml, day 8",gone
same,Morphology of cES cells,"puromycin 0.6 μg/ml, day 9",gone
same,Morphology of cES cells,"puromycin 0.6 μg/ml, day 10",gone
same,Morphology of cES cells,"puromycin 0.7 μg/ml, day 1",diff
same,Morphology of cES cells,"puromycin 0.7 μg/ml, day 2",gone
same,Morphology of cES cells,"puromycin 0.7 μg/ml, day 3",gone
same,Morphology of cES cells,"puromycin 0.7 μg/ml, day 4",gone
same,Morphology of cES cells,"puromycin 0.7 μg/ml, day 5",gone
same,Morphology of cES cells,"puromycin 0.7 μg/ml, day 6",gone
same,Morphology of cES cells,"puromycin 0.7 μg/ml, day 7",gone
same,Morphology of cES cells,"puromycin 0.7 μg/ml, day 8",gone
same,Morphology of cES cells,"puromycin 0.7 μg/ml, day 9",gone
same,Morphology of cES cells,"puromycin 0.7 μg/ml, day 10",gone
same,Morphology of cES cells,"puromycin 0.8 μg/ml, day 1",gone
same,Morphology of cES cells,"puromycin 0.8 μg/ml, day 2",gone
same,Morphology of cES cells,"puromycin 0.8 μg/ml, day 3",gone
same,Morphology of cES cells,"puromycin 0.8 μg/ml, day 4",gone
same,Morphology of cES cells,"puromycin 0.8 μg/ml, day 5",gone
same,Morphology of cES cells,"puromycin 0.8 μg/ml, day 6",gone
same,Morphology of cES cells,"puromycin 0.8 μg/ml, day 7",gone
same,Morphology of cES cells,"puromycin 0.8 μg/ml, day 8",gone
same,Morphology of cES cells,"puromycin 0.8 μg/ml, day 9",gone
same,Morphology of cES cells,"puromycin 0.8 μg/ml, day 10",gone

# Source: patent US9144229B2, “Tissue specific expression of antibodies in chickens” (Synageva BioPharma Corp., priority 2002, dated 2015)
